What was measured:
[1] = simple remineralization test system (hydroxyapatite, soluble calcium by OCPC method); details: for remineralization effect (FIG. 12): final concentration of 0.1%
Source text: These conditions for easy remineralization are simplified as follows: in a system including hydroxyapatite, calcium and phosphorus are supplied for crystallization and soluble calcium is reduced; and in a system including no hydroxyapatite, phosphorus and calcium are not deposited and the high solubility thereof is maintained. Therefore, the magnitudes of the solubility of calcium in the two systems were compared to examine the remineralization effect. These simple test systems will be described below. […] For this method, there are the following constraints: a long time required for evaluation; a high-level experimental technique required; etc. Therefore, there is a demand for a simple evaluation system capable of quickly capturing changes in dentin mineral concentrations. Remineralization in an early dental caries lesion in the enamel of teeth is considered to develop via the following two processes:
This method comprises the steps of: (A) precipitating calcium in a solution containing phosphorus, calcium, and tooth components in the presence of the sample; (B) measuring a calcium concentration in the solution or the amount of the precipitated calcium after the precipitation; (C) precipitating calcium in the solution in the absence of the sample; (D) measuring a calcium concentration in the solution or the amount of the precipitated calcium after the precipitation; and (E) comparing calcium concentrations or the amounts of the precipitated calcium in steps (B) and (D). In a preferred embodiment, the above-described solution may contain hydroxyapatite, a buffer, KH2PO4 and CaCl2. The “tooth component” to be contained in the above-described solution is any material that precipitates phosphorus and calcium to produce hydroxyapatite due to remineralization. Use of hydroxyapatite is preferable. Alternatively, teeth of mammals such as a bovine, and sections or fractions thereof may be used. When the solution for calcium precipitation is prepared, the sequence of addition of the above-described phosphorus, calcium, and the other tooth components is not limited. Preferably, first the sample, then, phosphorus, calcium chloride solution, and the tooth component suspension or deionized water are added in this order to prepare the solution. The pH of the solution is preferably adjusted after the addition of KH2PO4. Calcium precipitation typically occurs by incubation at room temperature for ten and several hours to several days (preferably 10 hours to 7 days, more preferably 18 hours to 42 hours). The calcium solubility of the solution can be measured by any procedure known to those skilled in the art. The calcium solubility of the solution may be measured by OCPC method (using calcium C test Wako manufactured by Wako Pure Chemicals). Alternatively, the amount of precipitated calcium in the solution can be measured. The amount of precipitated calcium in the solution may be measured by any procedure known to those skilled in the art. The calcium solubility of the solution may be measured by any procedure known to those skilled in the art. Examples of such a method include the ICP method (Inductive Coupled Plasma method), atomic absorption analysis and an ion electrode method.
In order to examine the remineralization phenomenon in a more simple manner, conditions under which remineralization occurs more easily were simplified. In a system including hydroxyapatite, calcium and phosphorus are supplied for crystallization and soluble calcium is reduced. In contrast, in a system including no hydroxyapatite, calcium and phosphorus are not precipitated so that the solubility thereof is held at a high level. Based on these facts, the following test system was designed.

[2] = as above; details: 37° C., 8 days
[3] = remineralization test system using bovine tooth pieces (Example 3)
Method: The remineralization effect of a buffering agent may be examined by a known method, such as a remineralization test system using bovine tooth sections which is described in Inaba. D et al., Eur. J. Sci. 105:74-80, 1997; Inaba. D et al., J. Dent. Health. 47:67-74, 1997; and Iijima. Y et al., Dental Caries Research. 33:206-213, 1999.
This experiment was conducted basically in accordance with Inaba. D et al., Eur. J. Sci. 105:74-80, 1997; Inaba. D et al., J. Dent. Helth. 47:67-74, 1997; and Iijima. Y et al., Caries Research. 33:206-213, 1999.
Tooth pieces used in the experiment were prepared as follows: cubic bovine tooth pieces 3 mm per side were placed so that the enamel surfaces thereof are up. The pieces were covered with composite resin except for the enamel surfaces. The enamel was treated with wet abrasives and paper. Demineralization was conducted as follows: the tooth pieces were immersed in 1% lactate gel (pH 5.0) containing 6% carboxymethylcellulose gel at 37° C. for 3 weeks. Remineralization was conducted as follows: the tooth pieces subjected to demineralization were immersed in 20 mM 2-[4-(2-hydroxyethyl)]-1-piperidinylethane sulfonate (HEPES) buffer (pH 7.0) containing 1.5 mM CaCl2 and 0.9 mM KH2PO4 at 37° C. for one week.
After each treatment, a 200 μm-thick section was prepared from each treated tooth piece, and the mineral concentration distribution thereof was analyzed from the microradiographic images (not shown). […]
After each treatment, the calcium and phosphorus concentrations of the post-remineralization solution were also analyzed. The solution was centrifuged at 10,000 g for two minutes, and the supernatant was analyzed. The phosphorus concentration was determined by molybdic acid method (“Shin-ban Bunseki Kagaku Jikken [New Edition Analyical Chemistry Experiment] (1st ed.), pp. 313-314, published by Kagaku Dojin K. K.), and the calcium concentration was determined by OCPC method (manufactured by Wako Pure Chemicals: measured by a “calcium C test Wako” kit).

[4] = prior art; cited from earlier work
S. mutans strain 8148 = test: effect on fermentation of sucrose (pH of bacterial cell suspension); assay type: cell-based; details: 0.684% sugar added to 20% bacterial cell suspension; after 10 minutes
Method: S. mutans strain 8148 was incubated in 1,000 ml of brain heart infusion medium (manufactured by DIFCO Corporation) at 37° C. for 14 hours. Thereafter, the bacteria were collected by centrifugation at 6,000 rpm for 20 minutes. The bacteria was washed with phosphate buffered saline (PBS, pH 7.2), and suspended in the same PBS to 40% (v/v). To measure the pH, a reaction mixture (250 μl) was made of 125 μl of 40% bacterial cell suspension, 62.5 μl of 80 mM sucrose, and 62.5 μl of an aqueous solution containing various oligosaccharides (5% phosphorylated oligosaccharide sodium salt and phosphorylated oligosaccharide calcium salt). The pH of the reaction mixture was continuously measured with a pH meter (manufactured by Toa Denpa) while being incubated at 37° C.

[5] = remineralization solution + 2 ppm F, supernatant

With dermatan sulfate the “remineralization effect (FIG. 13)” value ([1]; final concentration of 0.2%) was “confirmed to have the remineralization effect”.

In the case of “chondroitin sulfate C [chondroitin sulfate C sodium salt]”, the “remineralization effect (FIG. 12)” value [1] is reported as “as good as or better than that of the phosphorylated oligosaccharide sodium salt”.

With OC[C@@H](O)[C@H](O)[C@@H](O)CO [xylitol] the “remineralization effect (FIG. 13)” value ([1]; 20% addition group) was “the remineralization effect as previously reported (as above) was confirmed”, the “effect of xylitol (remineralization)” value ([1]; statement in the background referring to the Examples) was “not substantially confirmed” and the “sample concentration exhibiting a remineralization effect (FIGS. 7A to 7C)” value [2] was 20%.

In the case of F [F, fluorine], the “lesion depth (FIG. 2)” value ([3]; demineralized bovine tooth pieces, remineralization solution + sample, 37° C., one week) is reported as “the lesion depth was unchanged”, the “Ca (mM) of the post-remineralization solution” value [3, 5] is reported as 0.73 mM and the “Pi (mM) of the post-remineralization solution” value [3, 5] is reported as 0.41 mM. The “concentration at which sufficient efficacy is exerted (remineralization)” value [4] was “about 2 ppm”.

With OC[C@H]1O[C@H](OC[C@H]2OC(O)(CO)[C@@H](O)[C@@H]2O)[C@H](O)[C@@H](O)[C@@H]1O (stereo partly drawn) [palatinose, 6-O-α-D-Glucopyranosyl-D-Fructofuranose] the “remineralization effect (FIG. 13)” value ([1]; 20% addition group) was “the remineralization effect as previously reported (as above) was confirmed” and the “sample concentration exhibiting a remineralization effect (FIGS. 7A to 7C)” value [2] was 20%.

In the case of O=C[C@H](O)[C@@H](O)[C@H](O)[C@H](O)COP(=O)(O)O [glucose-6-phosphate], the “remineralization effect (FIG. 12)” value [1] is reported as “as good as or better than that of the phosphorylated oligosaccharide sodium salt”.

With OC[C@H]1O[C@@](CO)(O[C@H]2O[C@H](CO)[C@@H](O)[C@H](O)[C@H]2O)[C@@H](O)[C@@H]1O [sucrose] the “pH of the reaction liquid” value (S. mutans strain 8148) was 4.0.

With O=C[C@H](O)[C@@H](O)[C@H](O)CO [xylose] the “remineralization percentage (FIG. 7B)” value ([1]; 37° C., 8 days) was “low at any concentration”.

In the case of OC[C@@H](O)[C@@H](O)[C@H](O)[C@@H](O)CO [sorbitol], the “remineralization effect (FIG. 13)” value ([1]; 20% addition group) is reported as “the remineralization effect as previously reported (as above) was confirmed”.

With palatinit the “sample concentration exhibiting a remineralization effect (FIGS. 7A to 7C)” value [2] was 20%.
